Experimental findings from PubChem BioAssay AID179 (DTP/NCI, 2004) are described below.

SMILES strings stand for the structures. Calls of active or inactive are those of the source.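 Rule for the calls: active = compounds giving half or more protection of infected cells from virus-caused growth loss, again on retest; inactive = the rest.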 A value given as a limit tells only on which side of the number the result lay.

In this experiment the test system is CEM cells HIV-1 protection, formazan growth assay. As to the kind of experiment: NCI AIDS Antiviral Assay. The note with it: for IC50: measured here: growth of uninfected CEM cells. In short, it runs like this: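 Protection of CEM cells against HIV-1 was scored from cell growth (soluble formazan) across five concentrations, with parallel uninfected cells. Lack of protection may reflect toxicity.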

One may read the EC50 as the concentration at which the effect is half-maximal. As usually defined, the IC50 is the midpoint of a concentration-inhibition curve. Higher therefore signals lower potency.

Regarding `CC1=Nc2c(ccc3c2C(=O)c2ccccc2C3=O)NC(c2cccc3c2CCC3)C1` (stereo not given), the EC50 is greater than 9.33 µM and the IC50 was greater than 9.33 µM.
Consider `COc1ccccc1C1c2cc3c(cc2OC(N2CCCC2)C1C)OCO3` (stereo not given), for which the EC50 is greater than 200 µM and the IC50 is 16.2 µM.
For `N#C/C(=C\c1ccc(C#N)cc1)C(=O)c1ccccc1`, in that order: greater than 97.7 µM and 41.7 µM.
On to `CCCNC1=C(C(=O)OCC)C(=O)CO1`, for which the EC50 is greater than 33.9 µM and the IC50 was greater than 33.9 µM.
As for `O=C(Nc1ccc(Oc2ccc(Cl)cc2)c(Cl)c1)c1cc(I)cc(I)c1O`, the EC50 was greater than 200 µM and the IC50 was found to be 11.5 µM.
As to `CNC(=O)O/N=C(C)/C(C)=N/OC(=O)NC`, the result was inactive.
As for `CC1=C(c2cc(C(=O)Nc3cc(C)ccc3C)nc(N)n2)Sc2ccccc2N1`, the EC50 is greater than 12.9 µM and the IC50 is greater than 12.9 µM.
Take `CCC(=O)c1c(CC)ccc2ccccc12`: the EC50 is greater than 200 µM and the IC50 worked out at 105 µM.
As to `CCCC1C(C#N)(C#N)C1(C#N)C#N`, the EC50 was greater than 200 µM and the half-maximal inhibitory concentration (IC50) was found to be 2.69 µM.
For `CC1(C)C(C#N)C1C1=C(N2CCOCC2)[C@]2(C)C(OC(=O)c3ccccc3)CC[C@@H]2C1` (stereo not given in full), in that order: greater than 50.1 µM and 38.9 µM.
In the same order, the values of `CN1NC(c2ccccc2)=C(C#N)C(=O)CC1c1ccccc1` (stereo not given) are greater than 200 µM and 93.3 µM.
As to `CC(=O)[O-].O=C([N-]/N=C\c1ccoc1)c1ccncc1.[Ni+2].[OH3+].[OH3+].c1ccncc1`, the EC50 was greater than 200 µM and the IC50 is greater than 200 µM.
As for `CCOC(=O)/C=C/c1nc(C#N)c(N)o1`, the EC50 was greater than 200 µM and the half-maximal inhibitory concentration (IC50) stood at 102 µM.
In the same order, the values of `Cc1cc(C)c2c(O)c(S(=O)(=O)c3ccc(Cl)cc3)c(=O)oc2c1` are greater than 200 µM and 77.6 µM.
In the same order, the values of `O=C1Nc2cc(Cl)ccc2N=CC1NC(=O)C(c1ccccc1)c1ccccc1Cl` (stereo not given) are greater than 295 µM and 219 µM.
In the same order, the values of `Nc1ccc2nc(-c3ccccn3)c(-c3ccccn3)nc2c1` are 123 µM and greater than 200 µM.
With `O=C(N=Nc1ccc(Br)cc1)NNc1ccc(Br)cc1`, the EC50 is greater than 200 µM and the IC50 worked out at 12.9 µM.
Consider `COc1ccc(OC)c(Cc2c(OC)ccc(OC)c2O)c1O`, for which the outcome was inactive.
Regarding `COc1ccc2c(c1OC)CC1COCC21` (stereo not given), the EC50 was greater than 200 µM and the half-inhibitory concentration (IC50) is greater than 200 µM.
`O=C(C#Cc1ccccc1)Nc1ccccc1CC(c1c[nH]c2ccccc12)c1c[nH]c2ccccc12`: the EC50 was greater than 26.3 µM and the IC50 was determined as 5.25 µM.
For `C[N+]1(C2=C([O-])C(F)(F)C2=O)CCOCC1`, in that order: greater than 200 µM and greater than 200 µM.
For `C(=N\Nc1ccccc1)/c1nc2ccccc2nc1/C=N/Nc1ccccc1`, in that order: greater than 5.5 µM and greater than 5.5 µM.
In the same order, the values of `Cc1ccc(C(=O)Nc2ccc(S(=O)(=O)O)c3cc(S(=O)(=O)O)cc(S(=O)(=O)O)c23)cc1NC(=O)c1cccc(NC(=S)Nc2cccc(C(=O)Nc3cc(C(=O)Nc4ccc(S(=O)(=O)O)c5cc(S(=O)(=O)O)cc(S(=O)(=O)O)c45)ccc3C)c2)c1` are 100 µM and 537 µM.
As for `COc1ccc(N=Nc2ccc3oc(=O)c(C(=O)Nc4ccccc4)cc3c2)cc1`, the EC50 was greater than 200 µM and the IC50 stood at 33.1 µM.
For the compound `CCCCS(=N)(=O)CCC(N)P(=O)(O)O` (stereo not given), the EC50 is greater than 200 µM and the IC50 was greater than 200 µM.
For the compound `O=C(CC1(O)C(=O)Nc2c(Cl)cc(Cl)cc21)c1ccc([N+](=O)[O-])cc1` (stereo not given), the EC50 is greater than 178 µM and the IC50 is 93.3 µM.
In the same order, the values of `O=C(Nc1ccccc1)[C@H](O)[C@@H](O)C(=O)Nc1ccccc1` are greater than 60.3 µM and 49 µM.
For `O=C1c2cscc2C(=O)c2c(OCc3ccccc3)ccc(OCc3ccccc3)c21`, in that order: greater than 200 µM and 4.17 µM.
In the same order, the values of `COc1ccc(NC(=O)/C(Cc2cc(=O)oc3cc(O)ccc23)=N\NC(C)(C)C)c(OC)c1` are greater than 30.2 µM and greater than 30.2 µM.
In the case of `O=C1/C(=C/c2cccc(O)c2)COc2ccccc21`, the EC50 is greater than 123 µM and the IC50 is 4.27 µM.
For `COc1cc2c(c(O)c1OC)C(=O)[C@@H]1CCC(=O)N1C2c1ccccc1` (stereo not given in full), in that order: greater than 200 µM and 83.2 µM.
For `Cc1nn2c(=O)c([N+](=O)[O-])c(/C=C/c3ccccc3)nc2s1`, in that order: greater than 200 µM and 3.31 µM.
In the same order, the values of `O=C1CC(c2ccsc2)NC(=O)N1CCCl` (stereo not given) are greater than 200 µM and greater than 200 µM.
On to `Nc1ncc(Br)c(NCC2(CO)CCC2)n1`, for which the EC50 is greater than 200 µM and the IC50 was determined as 15.8 µM.
For `NNc1nnc(-c2ccccc2)nc1Cc1ccccc1`, in that order: greater than 25.7 µM and 13.8 µM.
In the same order, the values of `CCOC(OCC)C(CC)[Se]c1ccccc1[N+](=O)[O-]` (stereo not given) are greater than 28.8 µM and 1.7 µM.
Consider `Cc1nc2ccccc2c(=O)n1NC(=O)c1ccccc1[N+](=O)[O-]`, for which the EC50 was greater than 200 µM and the 50% inhibitory concentration (IC50) is greater than 200 µM.
`Cc1ccc(N=Nc2c(C)nn(C(=O)CC(=O)Nc3ccc(Cl)cc3)c2C)cc1C`: the EC50 was greater than 200 µM and the IC50 is greater than 200 µM.
Regarding `O=C1c2cc3c(cc2CC12Cc1ccccc1C2)CCC3`, the EC50 is greater than 200 µM and the IC50 amounted to 28.2 µM.
For `CC(C)N(C(=O)C12C3C4C5(C#N)C3C1(I)C5C42I)C(C)C` (stereo not given), in that order: greater than 14.1 µM and greater than 14.1 µM.
For `O=C1NC(c2ccco2)N2C(=O)NC(c3ccco3)N12` (stereo not given), the result was inactive.
For the compound `Cc1ccc(N=Nc2cc(C)c(N)c(N=Nc3ccc(N=Nc4cc(C(=O)O)c(O)c(S(=O)(=O)O)c4)c(C)c3)c2N)cc1`, the concentration giving a half-maximal response (EC50) is 14.1 µM and the IC50 is greater than 100 µM.
As for `O=c1cc(N2CCOCC2)n2c(ccc3ccccc32)n1`, the EC50 was greater than 200 µM and the IC50 turned out to be 186 µM.
Take `COc1ccc2cc(C(C)C(=O)N3C(=O)OCC3(C)C)ccc2c1` (stereo not given): the EC50 was greater than 200 µM and the half-maximal inhibitory concentration (IC50) worked out at 91.2 µM.
For `c1ccc(CNN2CN(NCc3ccccc3)CN(NCc3ccccc3)C2)cc1`, in that order: greater than 100 µM and 70.8 µM.
Consider `Cc1ccc(SC(CCC(Sc2ccc(C)cc2)Sc2ccc(C)cc2)Sc2ccc(C)cc2)cc1`, for which the outcome was inactive.
On to `O=Nc1c(-c2ccc(Cl)cc2)nc2ncccn12`, for which the EC50 is greater than 200 µM and the IC50 came to 38 µM.
With `CC(=O)OC1C=C2c3cc4c(c(O)c3C(=O)NC2[C@H](OC(C)=O)[C@@H]1OC(C)=O)OCO4` (stereo not given in full), the result was inactive.
As to `COc1cc2c3c(c1)nnn3C(=O)CCS2`, the EC50 is greater than 200 µM and the IC50 was greater than 200 µM.
For the compound `CCOCC(=O)N(C)c1cccc2c3c(n(C)c12)CCCCC3`, the outcome was inactive.
As for `O=C1CCN(CCC(F)(F)C(F)(F)C(F)(F)C(F)(F)F)C(=S)N1`, the EC50 is greater than 26.3 µM and the IC50 is greater than 26.3 µM.
`CO[C@H]1C[C@H](n2cc(C)c(=O)[nH]c2=O)O[C@@H]1CO`: the EC50 is greater than 200 µM and the IC50 is greater than 200 µM.
On to `CC(=O)Oc1c2ccsc2cc2ccsc12`, for which the EC50 is greater than 75.9 µM and the IC50 was determined as 3.31 µM.
